Tests used:
[1] = Real-time adsorption of model compounds monitored by RQCM; format: physicochemical; conditions: in situ RQCM; for adsorption (saturation) that took place within the first 2 min: silk pre-coated gold electrode
Excerpt: (§1) This process was repeated according to the designated architectures in which the outmost layer was always silk layer. In this work, two different loading modalities were used in the release study for each compound, each with two different rinsing methods. UV-Vis absorbance spectra and a research quartz crystal microbalance (RQCM) were used for verifying the deposition.
The real-time adsorption of model compounds on silk pre-coated gold electrode surface was monitored using research quartz crystal microbalance (RQCM).

[2] = Compound release from multilayer silk coatings on glass slides in PBS; format: physicochemical; conditions: room temperature
Excerpt: as §1
The compound release from the multilayer coatings on glass microscope slides (25×75 mm on both sides) was investigated by incubating the slides in 5 ml PBS buffer solutions at room temperature with gentle shaking (60 rpm). At preset time intervals, 2 ml supernatant was sampled and 2 ml fresh PBS solution was then added to replenish the sample that was removed in order to maintain a constant volume. The supernatant was analyzed for the amount of released model compound using UV-vis spectroscopy for optical densities at a specific wavelength for each compound (562 nm for Rhodamine B, 609 nm for Even Blue, and 358 nm for Azoalbumin) and compared to a standard curve generated for each compound. The amount of released compound in each sample was summed with the amounts at each previous time point and divided by the total amount to obtain cumulative release value. Experiments were run in triplicates (n=3). Data in the graphs represent the average±standard deviation.

adsorption (saturation) that took place within the first 2 min [1] [%]	initial burst, compared with Rhodamine B [2]	adsorption on silk coating, compared with Even Blue [1]	Compound
~92	no noticeable difference		Cc1cc(-c2ccc(/N=N/c3ccc4c(S(=O)(=O)[O-])cc(S(=O)(=O)[O-])c(N)c4c3O)c(C)c2)ccc1/N=N/c1ccc2c(S(=O)(=O)[O-])cc(S(=O)(=O)[O-])c(N)c2c1O.[Na+].[Na+].[Na+].[Na+] [Even Blue]
~92		higher adsorption	CCN(CC)c1ccc2c(-c3ccccc3C(=O)O)c3ccc(=[N+](CC)CC)cc-3oc2c1 [Rhodamine B]

Compound	adsorption (saturation) that took place within the first 2 min [1] [%]	initial burst, compared with Rhodamine B [2]	adsorption on silk coating, compared with Even Blue [1]
Azoalbumin: model molecule representing therapeutically relevant proteins	~82		
